Source: US20230158034A1, “CO-TREATMENT WITH CDK4/6 AND CDK2 INHIBITORS TO SUPPRESS TUMOR ADAPTATION TO CDK2 INHIBITORS” (Pfizer Inc., priority 2020, published 2023)

Columns and labels:
[1] = Half-life of PF3600 in cells; type: in vitro ADME
[2] = tested on: CDK2 T-loop phosphorylation, Cyclin E1, p21; assay: Western blots of palbociclib-treated lung tumors; type: in vivo, mouse; conditions: palbociclib 70 mg/kg QD for 28 days
Method: To test the potential compensatory relationship between CDK2 and CDK4/6 in vivo, an established mouse lung tumor model driven by KRAS^G12V and TRP53 mutations was used. Kras^+/LSLG12V, Trp53^L/L mice intra-nasally infected with adenoviral particles encoding Cre recombinase developed lung tumors with a latency of 5 months. Once tumor development was detected by CT scans, animals were treated with either vehicle or palbociclib (70 mg/kg QD) for 28 days and tumor volumes were subsequently measured by CT scans at the end of the treatment period.
For western blots in FIG. 7B, protein extraction was performed in protein lysis buffer (50 mM Tris-HCl pH 7.4, 150 mM NaCl, 0.5% NP-40) supplemented with a cocktail of protease and phosphatase inhibitors (complete Mini, Roche, 11836153001; Phosphatase Inhibitor Cocktail 2 and 3, Sigma, P5726 and P0044). Protein concentrations were measured using Bradford (Bio-Rad) method. […] of protein extracts obtained from tumor tissue were separated on NUPAGE™ 4-12% Bis-Tris Midi gels (Invitrogen), transferred to a nitrocellulose membrane (GE Healthcare) and blotted with primary antibodies. Primary antibodies were detected with goat secondary antibodies directed against mouse or rabbit IgGs (HRP, Dako, and Alexa Fluor 680, Invitrogen) and visualized with ECL Western Blot detection solution (GE Healthcare).

Row | SMILES | half-life [1] [h] | CDK2 T-loop phosphorylation and Cyclin E1 in tumors (western blot) [2] | p21 in tumors (western blot) [2]
1 | C[C@@]1(O)CCC[C@H]1n1c(=O)c(C(F)F)cc2cnc(NC3CCN(S(C)(=O)=O)CC3)nc21 [PF3600, 6-(difluoromethyl)-8-[(1R,2R)-2-hydroxy-2-methylcyclopentyl]-2-{[1-(methylsulfonyl)-piperidin-4-yl]amino}pyrido[2,3-d]pyrimidin-7(8H)-one] | ~30 |  | 
2 | CC(=O)c1c(C)c2cnc(Nc3ccc(N4CCNCC4)cn3)nc2n(C2CCCC2)c1=O [palbociclib] |  | upregulation of CDK2 T-loop phosphorylation and Cyclin E1 | significant downregulation of the CDK inhibitor p21
